Here are results for 2 compounds from patent publication US12305171B2, “Compositions and methods for treating cancer” (bioAffinity Technologies, Inc., priority 2018, dated 2025).

Where two headings read alike, the source gives them in different places.

Experiment [1] deals with LncAP. In words: functional siRNA cell proliferation assay (CTG assay, microscopy). Format: cell-based. The conditions noted are these: LnCAP (Prostate); 4 txns; 7 days expt; n=3. The text has this: (§1) FIGS. 10 A-E illustrate graphs of the effects of siCD320 and siLRP2 on cell proliferation—Cell lines representative of several types of cancers (breast, prostate, skin) were transfected with individual or combinations of siRNAs targeting CD320 (OSC17, OSC47) or LRP2 (05L231, OSL245) as indicated. Cells were repeatedly transfected as outlined in Table 9 for efficient toxicity, then assayed for viability by the CTG assay. Doxorubicin-treated cells served as a positive control for cell toxicity in our assays (Table 8).
(§2) FIGS. 16 A-D illustrate plated cells showing the effects of siCD320 and siLRP2 on four cell lines. Cell lines representative of four types of cancers (breast, two prostate, skin) were transfected with siRNAs targeting CD320 (OSC17) or LRP2 (05L245) individually at 20 nM or in combination (10 nM each) or a negative control siRNA (OSS2) (20 nM) as indicated. Cells were repeatedly transfected for efficient toxicity as in Table 9 and then analyzed by microscopy as indicated.
(§3) Referring now to FIG. 16, treatment of breast, prostate, and skin cancer cells with an inhibitor of CD320 receptor or an inhibitor of LRP2 receptor or a combination of both in an amount effective to inhibit proliferation of the cancer cells as compared to the control cells treated with control siRNA is illustrated. […]

Experiment [2] concerns DU145. The description is as above. Format: cell-based. The following applies: DU-145 (Prostate); 4 txns; 7 days expt; n=6.
Source text: as §1
FIGS. 11A-B illustrate the effects of siCD320 and siLRP2 molar proportions on cell proliferation with different molar proportions of siRNA targeting CD320 and siRNA targeting LRP2. Cell lines representative of two types of cancers (breast, prostate) were transfected with different proportions of siRNAs targeting CD320 (OSC17) or LRP2 (05L245) (0-20 nM) or a negative control siRNA (OSS2) as indicated. Cells were repeatedly transfected for efficient toxicity then assayed for viability by the CTG assay. Doxorubicin-treated cells served as a positive control for cell toxicity in our assays (Table 8).
FIGS. 16 A-D illustrate plated cells showing the effects of siCD320 and siLRP2 on four cell lines. […] Cells were repeatedly transfected for efficient toxicity as in Table 9 and then analyzed by microscopy as indicated. […]

The subject of experiment [3] is MDA-MB-435S. The description is as above. Format: cell-based, human. The following applies: MDA-MB-435S (Melanoma); 5 txns; 10 days expt; n=4.
Source text: as §1, §2, §3

For experiment [4], the system named is MDA-MB-231. The experiment is described as above. Format: cell-based. The conditions noted are these: MDA-MB-231 (Breast); 4 txns; 11 days expt; n=6.
Source text: as §1
FIGS. 11A-B illustrate the effects of siCD320 and siLRP2 molar proportions on cell proliferation with different molar proportions of siRNA targeting CD320 and siRNA targeting LRP2. Cell lines representative of two types of cancers (breast, prostate) were transfected with different proportions of siRNAs targeting CD320 (OSC17) or LRP2 (05L245) (0-20 nM) or a negative control siRNA (OSS2) as indicated. […]
FIGS. 16 A-D illustrate plated cells showing the effects of siCD320 and siLRP2 on four cell lines. […] Cells were repeatedly transfected for efficient toxicity as in Table 9 and then analyzed by microscopy as indicated.
Now, referring to FIG. 10B, MDA-MB-231 triple negative breast cancer cells were plated in a 24-well plate at 20,000 cells/well. […] At day 11, cells were analyzed for cell growth by the CTG assay. […]

The test system of experiment [5] is A172. In words: functional siRNA cell proliferation screening (CTG assay). Format: cell-based. The following applies: A172 (Glioblastoma); 5 txns; 7 days expt; n=3. The protocol: as §1, with “9” for “10”, “percent cell survival” for “effects”, “(lung, brain) or normal fibroblasts” for “(breast, prostate, skin)”, “OSL245), individually at 20 nM or in combination (10 nM each), or a negative control siRNA (OSS2) (20 nM)” for “OSL245)”
as §1
(§4) Referring now to FIG. 16, treatment of breast, prostate, and skin cancer cells with an inhibitor of CD320 receptor or an inhibitor of LRP2 receptor or a combination of both in an amount effective to inhibit proliferation of the cancer cells as compared to the control cells treated with control siRNA is illustrated. MDA-MB-231, DU145, LnCAP, and MDA-MB-435S cells were plated at 20,000 cells per well in a 24-well plate. The next day, the cells were transected with 20 nM of indicated siRNAs to knock down CD320, LRP2, or scrambled control. For the combination of siRNAs, cells were treated with 10 nM of each siRNA for 20 nM total treatments. The indicated pictures of the cells were taken at the end of the experiment.

Experiment [6] relates to MCF-7. Described as above. The following applies: MCF-7 (Breast); 2 txns; 7 days expt; n=3. Format: cell-based. The protocol:
as §1, with “9” for “10”, “percent cell survival” for “effects”, “(lung, brain) or normal fibroblasts” for “(breast, prostate, skin)”, “OSL245), individually at 20 nM or in combination (10 nM each), or a negative control siRNA (OSS2) (20 nM)” for “OSL245)”
as §1, §4

In experiment [7] the test system is U251. The description is as above. Format: cell-based. The following applies: U251 (Glioblastoma); 6 txns; 8 days expt; n=4. The protocol: as §1, with “9” for “10”, “percent cell survival” for “effects”, “(lung, brain) or normal fibroblasts” for “(breast, prostate, skin)”, “OSL245), individually at 20 nM or in combination (10 nM each), or a negative control siRNA (OSS2) (20 nM)” for “OSL245)”
as §1, §4

Experiment [8] relates to GM05659. The experiment is described as above. The conditions noted are these: GM05659 (Normal); 4 txns; 7 days expt; n=3. Format: cell-based. The protocol:
as §1, with “9” for “10”, “percent cell survival” for “effects”, “(lung, brain) or normal fibroblasts” for “(breast, prostate, skin)”, “OSL245), individually at 20 nM or in combination (10 nM each), or a negative control siRNA (OSS2) (20 nM)” for “OSL245)”
as §1, §4

For experiment [9], the system named is HCC15. The experiment is described as above. Format: cell-based. The conditions noted are these: HCC15 (Lung); 2 txns; 7 days expt; n=3. As for the experimental part: as §1, with “9” for “10”, “percent cell survival” for “effects”, “(lung, brain) or normal fibroblasts” for “(breast, prostate, skin)”, “OSL245), individually at 20 nM or in combination (10 nM each), or a negative control siRNA (OSS2) (20 nM)” for “OSL245)”
as §1, §4

In experiment [10] the test system is H157. Described as above. The following applies: H157 (Lung); 5 txns; 8 days expt; n=3. Format: cell-based. As for the experimental part:
as §1, with “9” for “10”, “percent cell survival” for “effects”, “(lung, brain) or normal fibroblasts” for “(breast, prostate, skin)”, “OSL245), individually at 20 nM or in combination (10 nM each), or a negative control siRNA (OSS2) (20 nM)” for “OSL245)”
as §1, §4

Experiment [11] relates to PC3. In words: doxorubicin cell viability, CTG assay. Format: cell-based. The conditions noted are these: Homo sapiens, PC-3, 96 h; PC3, Prostate; CTG 4 days after treatment. The protocol:
(§5) A172 and HCC15 cells were plated at 1200 cells/well in a 96 well plate. The next day, cells were treated with doxorubicin at the indicated concentrations. Four days after the doxorubicin exposure was initiated, the cells were assayed for viability using the CTG assay. […] After incubating the cells with the CTG reagent, ATP levels can be indirectly measured as light production using the TECAN luminescence plate reader. As a first step, toxicity of a known chemotherapeutic drug, doxorubicin, was assayed on the cell lines of interest. Doxorubicin was used as a positive control for cell toxicity in our assay.
(§6) The cells lines were plated at 1,000 to 4,000 cells/well in a 96-well plate and treated with doxorubicin the following day. CTG activity was measured 4 days after treatment. IC50 values were calculated by GraphPad Prism Software.

In experiment [12] the test system is U251. The experiment can be described thus: doxorubicin cell viability, CTG assay. Format: cell-based. The conditions noted are these: Homo sapiens, U-251, 96 h; U251, Glioblastoma; CTG 4 days after treatment. As for the experimental part: as §5, §6
Experiment [13] concerns GM05659. In words: doxorubicin cell viability, CTG assay. The conditions noted are these: 96 h; GM05659, Other; CTG 4 days after treatment. Format: cell-based. As for the experimental part:
as §5, §6

In experiment [14] the test system is HEK293. The experiment can be described thus: doxorubicin cell viability, CTG assay. Format: cell-based. The following applies: Homo sapiens, 96 h; HEK293, Other; CTG 4 days after treatment. As for the experimental part: as §5, §6
Experiment [15] concerns DU145. The experiment can be described thus: doxorubicin cell viability, CTG assay. The following applies: Homo sapiens, DU-145, 96 h; DU145, Prostate; CTG 4 days after treatment. Format: cell-based. As for the experimental part:
as §5, §6

For experiment [16], the system named is MDA-MB-435S. In words: doxorubicin cell viability, CTG assay. The conditions noted are these: Homo sapiens, 96 h, Melanoma, CTG 4 days after treatment. Format: cell-based. The protocol:
as §5, §6

Experiment [17] deals with NCI-H460. The experiment can be described thus: doxorubicin cell viability, CTG assay. The following applies: Homo sapiens, 96 h; NCI-H460, Lung; CTG 4 days after treatment. Format: cell-based. As for the experimental part: as §5, §6
For experiment [18], the system named is A172. In words: doxorubicin cell viability, CTG assay. Format: cell-based. The conditions noted are these: Homo sapiens, A 172, 96 h. The protocol: (§7) A172 and HCC15 cells were plated at 1200 cells/well in a 96 well plate. The next day, cells were treated with doxorubicin at the indicated concentrations. Four days after doxorubicin treatment was initiated, the cells were assayed for viability using the CTG assay. The dashed line indicates the non-linear fitting of the data to calculate an IC50 value.
as §5, §6

Experiment [19] concerns HCC15. The experiment can be described thus: doxorubicin cell viability, CTG assay. Format: cell-based. The conditions noted are these: 96 h. As for the experimental part: as §7, §5, §6

One may read the IC50 as the concentration needed to halve the response being measured.

Turning to `COc1cccc2c1C(=O)c1c(O)c3c(c(O)c1C2=O)C[C@@](O)(C(=O)CO)C[C@@H]3O[C@H]1C[C@H](N)[C@H](O)[C@H](C)O1` [DOX], the “percent survival compared to negative control OSS2” value was 38% in [1]; 40% in experiment [2]; 51% in [3]; 7% in experiment [4]; 8% in experiment [5]; 5% in [6]. For the same compound, the “percent survival compared to negative control OSS2” value was 51% in [7], 39% in experiment [8], 2% in experiment [9] and 20% in [10].

Consider `COc1cccc2c1C(=O)c1c(O)c3c(c(O)c1C2=O)C[C@@](O)(C(=O)CO)C[C@@H]3O[C@H]1C[C@H](N)[C@H](O)[C@H](C)O1` [doxorubicin], for which the IC50 is 387 nM in experiment [11]; 24 nM in [12]; 267 nM in experiment [13]; 29 nM in [14]; 248 nM in [15]; 325 nM in experiment [16]. In addition, the IC50 in experiment [17] was 56 nM; in experiment [18] (A172, Glioblastoma, CTG 4 days after treatment, read-out: IC50) it was 132 nM; in experiment [18] (A172 cells, CTG four days after exposure, read-out: IC50 of doxorubicin treatment), 132 nM; in experiment [19] (HCC15, Lung, CTG 4 days after treatment, read-out: IC50), 167 nM; in [19] (HCC15 cells, CTG four days after exposure, read-out: IC50 of doxorubicin treatment), 167 nM.
